Experimental data as given in ChEMBL document CHEMBL1201862, “PubChem BioAssay data set” (2004).
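A five-concentration, 48-hour dose response in 96-well plates underlies each endpoint, interpolated linearly between surrounding concentrations. At the GI50, growth is halved.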 Activity calls are given as the source filed them. Rule as the data show it: active = GI50 up to about 1.1 µM and inactive = higher.

Experiments:
Experiment in all cases: NCI-60 cell line screen, 48 h
[1] = test system: ACHN
[2] = test system: OVCAR-4
[3] = test system: DU-145
[4] = test system: LOX IMVI
[5] = test system: NCI-H23
[6] = test system: MDA-MB-435
[7] = test system: 786-0
[8] = test system: BT-549
[9] = test system: EKVX
[10] = test system: NCI-H226
[11] = test system: HCT-15
[12] = test system: UACC-257
[13] = test system: HT-29
[14] = test system: HL-60
[15] = test system: MDA-N
[16] = test system: SNB-19
[17] = test system: OVCAR-3
[18] = test system: T47D
[19] = test system: U-251
[20] = test system: SR
[21] = test system: UACC-62
[22] = test system: SF-539
[23] = test system: TK-10
[24] = test system: NCI-H522
[25] = test system: OVCAR-8
[26] = test system: Hs-578T
[27] = test system: SNB-75
[28] = test system: HOP-62
[29] = test system: SF-295
[30] = test system: NCI/ADR-RES
[31] = test system: HCC 2998
[32] = test system: K562
[33] = test system: Malme-3M
[34] = test system: HCT-116
[35] = test system: COLO 205
[36] = test system: MOLT-4
[37] = test system: SK-MEL-2
[38] = test system: RXF 393
[39] = test system: SF-268
[40] = test system: MDA-MB-231
[41] = test system: OVCAR-5
[42] = test system: RPMI-8226
[43] = test system: CCRF-CEM
[44] = test system: SW-620
[45] = test system: CAKI-1
[46] = test system: UO-31
[47] = test system: IGROV-1
[48] = test system: A549
[49] = test system: M14
[50] = test system: MCF7
[51] = test system: SK-OV-3
[52] = test system: KM12
[53] = test system: SN12C
[54] = test system: A498
[55] = test system: NCI-H460
[56] = test system: HOP-92
[57] = test system: SK-MEL-5
[58] = test system: PC-3
[59] = test system: SK-MEL-28

## CNC1C(=O)C(C)C(O)(C(CC(C)C(O)/C=C/C=C/CNC(=O)C(C)(C)C(O)\C(C)=C/C=C\C=C\Cc2cnc(C)o2)OC)C12C(=O)OC2C.CNC1C(=O)C(C)C(O)(C(CC(C)C(O)/C=C/C=C/CNC(=O)C(C)(C)C(O)\C(C)=C/C=C\C=C\Cc2cnc(C)o2)OC)C12C(=O)OC2COC (stereo unspecified)
[1]
  GI50: 3.3 µM (inactive)
[2]
  GI50: 0.345 µM (active)
[3]
  GI50: 31.5 µM (inactive)
[4]
  GI50: 14.2 µM (inactive)
[5]
  GI50: 0.218 µM (active)
[6]
  GI50: 16 µM (inactive)
[7]
  GI50: 18.5 µM (inactive)
[8]
  GI50: 25.1 µM (inactive)
[9]
  GI50: 0.292 µM (active)
[10]
  GI50: 0.668 µM (active)
[11]
  GI50: 21 µM
[12]
  GI50: 0.188 µM (active)
[13]
  GI50: 3.27 µM (inactive)
[14]
  GI50: 0.635 µM (active)
[15]
  GI50: 15 µM (inactive)
[16]
  GI50: 19.9 µM (inactive)
[17]
  GI50: 1.56 µM (inactive)
[18]
  GI50: 0.202 µM (active)
[19]
  GI50: 1.15 µM (inactive)
[20]
  GI50: 15.1 µM (inactive)
[21]
  GI50: 13.3 µM (inactive)
[22]
  GI50: 23.2 µM (inactive)
[23]
  GI50: 11.9 µM (inactive)
[24]
  GI50: 0.565 µM (active)
[25]
  GI50: 0.459 µM (active)
[26]
  GI50: 12.4 µM (inactive)
[27]
  GI50: 0.942 µM (active)
[28]
  GI50: 8.43 µM (inactive)
[29]
  GI50: 0.528 µM (active)
[30]
  GI50: 15.9 µM (inactive)
[31]
  GI50: 13.3 µM (inactive)
[32]
  GI50: 0.181 µM (active)
[33]
  GI50: 9.04 µM (inactive)
[34]
  GI50: 15.1 µM (inactive)
[35]
  GI50: 0.778 µM (active)
[36]
  GI50: 8.85 µM (inactive)
[37]
  GI50: 5.94 µM (inactive)
[38]
  GI50: 17.3 µM (inactive)
[39]
  GI50: 5.68 µM (inactive)
[40]
  GI50: 26.9 µM (inactive)
[41]
  GI50: 20.6 µM (inactive)
[42]
  GI50: 0.711 µM (active)
[43]
  GI50: 0.614 µM (active)
[44]
  GI50: 8.65 µM (inactive)
[45]
  GI50: 31.8 µM (inactive)
[46]
  GI50: 10.5 µM (inactive)
[47]
  GI50: 0.931 µM (active)
[48]
  GI50: 0.78 µM (active)
[49]
  GI50: 7.46 µM (inactive)
[50]
  GI50: 0.354 µM (active)
[51]
  GI50: 19 µM (inactive)
[52]
  GI50: 7.01 µM (inactive)
[53]
  GI50: 10.9 µM (inactive)
[54]
  GI50: 28.4 µM (inactive)
[55]
  GI50: 15.2 µM (inactive)
[56]
  GI50: 2.72 µM (inactive)
[57]
  GI50: 0.191 µM (active)
[58]
  GI50: 0.237 µM (active)
[59]
  GI50: 23.1 µM (inactive)

## Cc1ccc(NC(=S)C#N)c(C)c1
[1]
  GI50: > 100 µM (inactive)
[2]
  GI50: > 64.1 µM (inactive)
[3]
  GI50: > 100 µM (inactive)
[4]
  GI50: 73.1 µM (inactive)
[5]
  GI50: > 69.5 µM (inactive)
[6]
  GI50: 56 µM (inactive)
[7]
  GI50: > 100 µM (inactive)
[8]
  GI50: 54.1 µM (inactive)
[9]
  GI50: > 93.5 µM (inactive)
[10]
  GI50: > 84.3 µM (inactive)
[11]
  GI50: > 92.7 µM
[12]
  GI50: 63.2 µM (inactive)
[13]
  GI50: > 91.2 µM (inactive)
[14]
  GI50: 20.5 µM (inactive)
[15]
  GI50: > 82.2 µM (inactive)
[16]
  GI50: > 100 µM (inactive)
[17]
  GI50: 37.7 µM (inactive)
[18]
  GI50: 46 µM (inactive)
[19]
  GI50: > 86.3 µM (inactive)
[20]
  GI50: 33.7 µM (inactive)
[21]
  GI50: 97.3 µM (inactive)
[22]
  GI50: > 100 µM (inactive)
[23]
  GI50: > 100 µM (inactive)
[24]
  GI50: 46.7 µM (inactive)
[25]
  GI50: > 100 µM (inactive)
[26]
  GI50: > 100 µM (inactive)
[27]
  GI50: > 82.4 µM (inactive)
[28]
  GI50: > 100 µM (inactive)
[29]
  GI50: > 100 µM (inactive)
[30]
  GI50: 75.7 µM (inactive)
[31]
  GI50: > 100 µM (inactive)
[32]
  GI50: 38.4 µM (inactive)
[33]
  GI50: 44.2 µM (inactive)
[34]
  GI50: > 78.7 µM (inactive)
[35]
  GI50: > 84.1 µM (inactive)
[36]
  GI50: 28.8 µM (inactive)
[37]
  GI50: > 100 µM (inactive)
[38]
  GI50: > 100 µM (inactive)
[39]
  GI50: > 87.3 µM (inactive)
[40]
  GI50: > 100 µM (inactive)
[41]
  GI50: > 100 µM (inactive)
[42]
  GI50: 21.3 µM (inactive)
[43]
  GI50: 24.2 µM (inactive)
[44]
  GI50: > 73.5 µM (inactive)
[45]
  GI50: > 100 µM (inactive)
[46]
  GI50: 50 µM (inactive)
[47]
  GI50: > 63 µM (inactive)
[48]
  GI50: > 100 µM (inactive)
[49]
  GI50: 97.3 µM (inactive)
[50]
  GI50: > 69.5 µM (inactive)
[51]
  GI50: > 100 µM (inactive)
[52]
  GI50: > 82.8 µM (inactive)
[53]
  GI50: > 100 µM (inactive)
[54]
  GI50: > 100 µM (inactive)
[55]
  GI50: > 89.7 µM (inactive)
[56]
  GI50: 74.8 µM (inactive)
[57]
  GI50: 51.9 µM (inactive)
[58]
  GI50: > 100 µM (inactive)
[59]
  GI50: 65.3 µM (inactive)

## CCOC(=O)c1cccc(NC(=O)CBr)c1
[1]
  GI50: 1.56 µM (inactive)
[2]
  GI50: 1.53 µM (inactive)
[3]
  GI50: 1.82 µM (inactive)
[4]
  GI50: 0.0904 µM (active)
[5]
  GI50: 0.942 µM (active)
[6]
  GI50: 1.1 µM (active)
[7]
  GI50: 0.22 µM (active)
[8]
  GI50: 1.91 µM (inactive)
[9]
  GI50: 1.62 µM (inactive)
[10]
  GI50: 0.76 µM (active)
[11]
  GI50: 1.28 µM
[12]
  GI50: 1.82 µM (inactive)
[13]
  GI50: 1.69 µM (inactive)
[14]
  GI50: 1.74 µM (inactive)
[15]
  GI50: 1.4 µM (inactive)
[16]
  GI50: 4.4 µM (inactive)
[17]
  GI50: 1.39 µM (inactive)
[18]
  GI50: 1.7 µM (inactive)
[19]
  GI50: 0.581 µM (active)
[20]
  GI50: 0.206 µM (active)
[21]
  GI50: 1.42 µM (inactive)
[22]
  GI50: 0.984 µM (active)
[23]
  GI50: 1.67 µM (inactive)
[24]
  GI50: 0.0164 µM (active)
[25]
  GI50: 1.11 µM (active)
[26]
  GI50: 2.72 µM (inactive)
[27]
  GI50: 1.74 µM (inactive)
[28]
  GI50: 1.73 µM (inactive)
[29]
  GI50: 4.36 µM (inactive)
[30]
  GI50: 2.04 µM (inactive)
[31]
  GI50: 2.3 µM (inactive)
[32]
  GI50: 0.362 µM (active)
[33]
  GI50: 1.91 µM (inactive)
[34]
  GI50: 0.664 µM (active)
[35]
  GI50: 1.72 µM (inactive)
[36]
  GI50: 0.223 µM (active)
[37]
  GI50: 1.56 µM (inactive)
[38]
  GI50: 1.72 µM (inactive)
[40]
  GI50: 1.82 µM (inactive)
[41]
  GI50: 1.75 µM (inactive)
[42]
  GI50: 1.07 µM (active)
[43]
  GI50: 0.0618 µM (active)
[44]
  GI50: 0.361 µM (active)
[45]
  GI50: 0.618 µM (active)
[46]
  GI50: 0.776 µM (active)
[47]
  GI50: 0.959 µM (active)
[48]
  GI50: 2.09 µM (inactive)
[49]
  GI50: 1.3 µM (inactive)
[50]
  GI50: 1.19 µM (inactive)
[51]
  GI50: 1.85 µM (inactive)
[52]
  GI50: 1.79 µM (inactive)
[53]
  GI50: 0.458 µM (active)
[54]
  GI50: 3.43 µM (inactive)
[55]
  GI50: 0.927 µM (active)
[56]
  GI50: 1.93 µM (inactive)
[57]
  GI50: 1.41 µM (inactive)
[58]
  GI50: 1.55 µM (inactive)
[59]
  GI50: 2.62 µM (inactive)
